Key:
Experiment in all cases: relative viability (nuclei count vs DMSO), 5 days (fraction); higher = more cells survive
IMD-0354 + Bortezomib = compound: O=C(Nc1cc(C(F)(F)F)cc(C(F)(F)F)c1)c1cc(Cl)ccc1O [IMD-0354] + CC(C)C[C@H](NC(=O)[C@H](Cc1ccccc1)NC(=O)c1cnccn1)B(O)O [Bortezomib] (partner 0.002 µM)
Outline: (§1)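 Relative viability equals treated-well nuclei counts divided by vehicle-well nuclei counts. Counts came from 4× images of lung cancer cell lines grown in 1536-well plates for 5 days after pin-tool dosing on the day after seeding. Dosing used one drug alone or a fixed anchor-drug dose plus five library-drug doses (not always all listed) in √10 steps, and values are medians of duplicate plates.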

IMD-0354 + Crizotinib = compound: O=C(Nc1cc(C(F)(F)F)cc(C(F)(F)F)c1)c1cc(Cl)ccc1O [IMD-0354] + C[C@@H](Oc1cc(-c2cnn(C3CCNCC3)c2)cnc1N)c1c(Cl)ccc(F)c1Cl [Crizotinib] (partner 1 µM)
Outline: as §1

IMD-0354 + Decitabine = compound: O=C(Nc1cc(C(F)(F)F)cc(C(F)(F)F)c1)c1cc(Cl)ccc1O [IMD-0354] + Nc1ncn([C@H]2C[C@H](O)[C@@H](CO)O2)c(=O)n1 [Decitabine] (partner 2 µM)
Outline: as §1

IMD-0354 + Olaparib = compound: O=C(Nc1cc(C(F)(F)F)cc(C(F)(F)F)c1)c1cc(Cl)ccc1O [IMD-0354] + O=C(c1cc(Cc2n[nH]c(=O)c3ccccc23)ccc1F)N1CCN(C(=O)C2CC2)CC1 [Olaparib] (partner 8 µM)
Outline: as §1

Q: How did the relative viability (IMD-0354 + Bortezomib; first compound 0.04 µM) turn out when UMC-11 was run?
A: The relative viability was 1.13.

Q: And the relative viability (IMD-0354 + Bortezomib; first compound 0.1265 µM)?
A: Its relative viability is 0.796.

Q: What about the relative viability (IMD-0354 + Bortezomib; first compound 0.4 µM) of the same cell line?
A: Its relative viability is 0.465.

Q: And the relative viability (IMD-0354 + Bortezomib; first compound 1.265 µM)?
A: The relative viability was 0.237.

Q: And the relative viability (IMD-0354 + Bortezomib; first compound 4 µM)?
A: The relative viability was 0.212.

Q: What about the relative viability (IMD-0354 + Crizotinib; first compound 0.04 µM) of the same cell line?
A: Its relative viability is 0.701.

Q: What about the relative viability (IMD-0354 + Crizotinib; first compound 0.1265 µM) of the same cell line?
A: The relative viability was 0.578.

Q: And the relative viability (IMD-0354 + Crizotinib; first compound 0.4 µM)?
A: Its relative viability is 0.432.

Q: What about the relative viability (IMD-0354 + Crizotinib; first compound 1.265 µM) of the same cell line?
A: The relative viability was 0.263.

Q: And the relative viability (IMD-0354 + Crizotinib; first compound 4 µM)?
A: The relative viability was 0.267.

Q: And the relative viability (IMD-0354 + Decitabine; first compound 0.04 µM)?
A: The relative viability was 0.64.

Q: What about the relative viability (IMD-0354 + Decitabine; first compound 0.1265 µM) of the same cell line?
A: The relative viability was 0.646.

Q: And the relative viability (IMD-0354 + Decitabine; first compound 0.4 µM)?
A: The relative viability was 0.522.

Q: What about the relative viability (IMD-0354 + Decitabine; first compound 1.265 µM) of the same cell line?
A: The relative viability was 0.174.

Q: What about the relative viability (IMD-0354 + Decitabine; first compound 4 µM) of the same cell line?
A: The relative viability was 0.176.

Q: And the relative viability (IMD-0354 + Olaparib; first compound 0.04 µM)?
A: The relative viability was 0.368.

Q: What about the relative viability (IMD-0354 + Olaparib; first compound 0.1265 µM) of the same cell line?
A: The relative viability was 0.332.

Q: What about the relative viability (IMD-0354 + Olaparib; first compound 0.4 µM) of the same cell line?
A: The relative viability was 0.278.

Q: And the relative viability (IMD-0354 + Olaparib; first compound 1.265 µM)?
A: The relative viability was 0.182.

Q: And the relative viability (IMD-0354 + Olaparib; first compound 4 µM)?
A: Its relative viability is 0.178.

Reference: the supplement of paper PMC10307832
